In the OPERA property sets (Mansouri et al. 2018):

Conditions: for log10 BCF / log10 biotransformation half-life (days): fish

Row | SMILES | melting point [°C] | boiling point [°C] | also measured
1 | Oc1cc(Cl)c(Cl)c(Cl)c1Cl | 116 | – | log10 Koc (L/kg): 4.12
2 | FC(F)(F)C(Cl)(Cl)Cl | 14.2 | 46.1 | log10 vapour pressure (mmHg): 2.56
3 | OCC(Cc1ccccc1)c1ccccc1 (stereo not drawn) | 51 | 310 | –
4 | O=C(O)CCCCCCCCCCBr | 57 | – | –
5 | CC(=O)C1C(=O)C=C(C)OC1=O (stereo not drawn) | 109 | 270 | log10 vapour pressure (mmHg): -2.9; ready biodegradability: readily biodegradable
6 | CCOc1ccccc1NC(C)=O | 79 | – | –
7 | CCCCCCCCCCCCCCCC(=O)c1ccccc1 | 59 | – | –
8 | O=S(=O)(Cl)c1cccs1 | 28 | – | –
9 | OCCC1CCCC1 | – | 183 | –
10 | Clc1cc(Cl)c2c(oc3ccc(Cl)c(Cl)c32)c1Cl | 210 | – | –
11 | CCC(=O)O[C@H]1CC[C@H]2[C@@H]3CC[C@H]4CC(=O)[C@H](C)C[C@]4(C)[C@H]3CC[C@]12C | 128 | – | –
12 | COC(=O)CBr | – | 132 | –
13 | O=C(O)C(Cl)(Cl)CCl | 65.5 | – | –
14 | CCCC(=O)c1ccccc1 | 12 | 228 | –
15 | CCC1(C)CCCC1 | -144 | 122 | –
16 | CNC(=O)Oc1cccc(N=CN(C)C)c1 | – | – | log10 Koc (L/kg): 2.44
17 | CC[N+](C)(C)CCOC(=O)CCC(=O)OCC[N+](C)(C)CC.[Br-].[Br-] | 158 | – | –
18 | O=C(O)c1cc(I)c(I)c(I)c1 | 292 | – | –
19 | O=C1C(Br)=CC(=NCl)C=C1Br | 83 | – | –
20 | FC(F)(F)C1(F)C(F)(F)C(F)(F)C(F)(F)C(F)(F)C1(F)C(F)(F)F (stereo not drawn) | – | – | ready biodegradability: not readily biodegradable
21 | CCCCCCCCCCCCCCCCCCCCCC(=O)OCC | 50 | – | –
22 | CC(=O)Oc1ccc2c3c1O[C@H]1[C@@H](OC(C)=O)C=C[C@H]4[C@@H](C2)N(C)CC[C@@]341 | 173 | – | log10 vapour pressure (mmHg): -9.12

Row | SMILES | melting point [°C] | boiling point [°C] | also measured
23 | CNc1ccccc1 | -57 | 196 | log10 Henry constant (atm·m³/mol): -5.05; log10 Koc (L/kg): 2.28; log10 vapour pressure (mmHg): -0.344; ready biodegradability: not readily biodegradable; log10 BCF: 1; log10 biotransformation half-life (days): -0.88
24 | COc1ccc(Cl)cc1 | – | 198 | –
25 | Nc1ccc(Cl)c(C(=O)O)c1 | 188 | – | –
26 | COc1ccc(Cl)cc1Cl | 28.5 | 232 | –
27 | CCCCCOCC | – | 118 | –
28 | CC(C)(C)C(=O)OCC(=O)[C@@]1(O)CC[C@H]2[C@@H]3CCC4=CC(=O)C=C[C@]4(C)[C@H]3[C@@H](O)C[C@@]21C | 233 | – | –
29 | O=C(C(=O)c1ccccc1)c1ccccc1 | 94.8 | 347 | log10 vapour pressure (mmHg): -3.68
30 | CCCCCCCCCCCCCCCCCC(=O)CCCCCCCCCCCCCCCCC | 89 | – | –
31 | Oc1c(Cl)cccc1Cl | 68.5 | 220 | log10 vapour pressure (mmHg): -1.48; ready biodegradability: not readily biodegradable; log10 BCF: 1.08
32 | C#CCNC | – | 83 | –
33 | CNC(=O)Oc1ccccc1OC(CCl)OC (stereo not drawn) | 80 | – | –
34 | NC(=O)c1ccccc1 | 129 | 290 | log10 Henry constant (atm·m³/mol): -9.61; log10 Koc (L/kg): 1.46
35 | CN1CCN(C(=O)CC(c2ccc(Cl)cc2)(c2ccc(Cl)cc2)c2ccc(Cl)cc2)CC1 | 214 | – | –
36 | c1ccc(CCc2ccccn2)cc1 | -3 | 289 | –
37 | Cc1cc[nH]c1 | -48.4 | 143 | –
38 | Cc1nc2ccccc2o1 | 9.5 | 200 | –
39 | COC(=O)CCC#N | – | 211 | –
40 | CCOC(=O)CCCCCC(=O)OCC | -24 | 254 | log10 vapour pressure (mmHg): -2.51
41 | N#C/C=C/C#N | 96.8 | 186 | –
42 | CCCF | -159 | 2.5 | log10 vapour pressure (mmHg): 3.3
43 | C=C(C)C(=O)OCC1CO1 (stereo not drawn) | – | – | ready biodegradability: readily biodegradable
44 | CN(C)C(=O)Nc1cc(C(C)(C)C)on1 | 120 | – | log10 Koc (L/kg): 2.47; log10 vapour pressure (mmHg): -6.42; ready biodegradability: readily biodegradable

Row | SMILES | melting point [°C] | boiling point [°C] | also measured
45 | N=C(N)N(c1ccccc1)c1ccccc1 | – | – | ready biodegradability: not readily biodegradable
46 | CN1CCC(OC(c2ccccc2)c2ccccc2)CC1.Cl | 204 | – | –
47 | CN1CC=C(c2ccccc2)CC1 | 40 | – | –
48 | CC[C@@H]1CN2CCc3c([nH]c4cccc(OC)c34)[C@H]2C[C@@H]1/C(=C\OC)C(=O)OC | 104 | – | –
49 | CC(C)/N=c1/cc2n(-c3ccc(Cl)cc3)c3ccccc3nc-2cc1Nc1ccc(Cl)cc1 | 211 | – | –
50 | ClCc1ccc(Cl)cc1Cl | -2.6 | 248 | log10 vapour pressure (mmHg): -1.49
51 | CCC1CO1 (stereo not drawn) | – | 63.3 | log10 vapour pressure (mmHg): 2.26; ready biodegradability: readily biodegradable
52 | CCCCCCCCCCCCCC#N | 19 | – | –
53 | Cc1cc(O)c(C(C)(C)C)cc1C(C)(C)C | 62.1 | 282 | –
54 | O=C(C(=O)c1ccco1)c1ccco1 | 164 | – | –
55 | CCCCCCCCCCCCCC(=O)O | 53.9 | 326 | log10 vapour pressure (mmHg): -5.85
56 | C=C/C(C)=C\CC=C(C)C | – | – | log10 OH rate constant (cm³/molecule/s) ([…]): -9.6
57 | c1ccc(Sc2ccccc2)cc1 | -25.9 | 296 | log10 vapour pressure (mmHg): -2.12
58 | CCCCCC(C)OC(=O)COc1ccc(Cl)c2cccnc12 (stereo not drawn) | 69.4 | – | log10 vapour pressure (mmHg): -7.4
59 | Clc1ccc(Cl)c(-c2cc(Cl)c(Cl)c(Cl)c2)c1 | 105 | – | –
60 | c1ccc(N=C(Nc2ccccc2)Nc2ccccc2)cc1 | 146 | – | –
61 | Cc1ncccn1 | -4 | 138 | –
62 | C[C@]12CCc3c(ccc4cc(O)ccc34)[C@@H]1CCC2=O | 258 | – | –
63 | COc1cc2ccc(=O)oc2cc1OC | 146 | – | –
64 | O=C1OCCN1/N=C/c1ccc([N+](=O)[O-])o1 | 255 | – | –
65 | O=C1C2(Cl)C3(Cl)C4(Cl)C(Cl)(Cl)C5(Cl)C3(Cl)C1(Cl)C5(Cl)C24Cl (stereo not drawn) | – | – | log10 Koc (L/kg): 4.2; log10 vapour pressure (mmHg): -6.65; log10 BCF: 3.19
66 | O=C1OC(=O)c2cc(Cl)c(Cl)cc21 | 188 | 313 | –

Row | SMILES | melting point [°C] | boiling point [°C] | also measured
67 | CCCCCCCOC(C)=O | -50.2 | 193 | –
68 | CC(C)(F)F | -105 | -0.4 | –
69 | CC(=O)OC[C@H]1O[C@@H](n2ncc(=O)[nH]c2=O)[C@H](OC(C)=O)[C@@H]1OC(C)=O | 100 | – | –
70 | NC(=S)Nc1cccc2ccccc12 | 198 | – | –
71 | CCCCB(O)O | 95 | – | –
72 | CCc1cccc(C)n1 | – | 160 | –
73 | CC(C)N1C(=O)c2ccccc2[N]([Na])S1(=O)=O | – | – | log10 Koc (L/kg): 1.54
74 | O=C(OCc1ccccc1)c1ccccc1 | 21 | 324 | log10 vapour pressure (mmHg): -3.65; ready biodegradability: readily biodegradable
75 | CCCCC[C@H](O)/C=C/[C@H]1[C@H](O)CC(=O)[C@@H]1C/C=C\CCCC(=O)O | 67 | – | –
76 | O=[N+]([O-])c1ccc(-c2ccccc2[N+](=O)[O-])cc1 | 93.5 | – | –
77 | CCCCCc1ccc2c(c1)C(=O)c1ccccc1C2=O | – | – | ready biodegradability: not readily biodegradable; log10 BCF: 2.94; log10 biotransformation half-life (days): 0.2
78 | FC(F)(F)C(F)(F)C(F)(F)C(F)(F)I | -68 | 67 | –
79 | CNCc1ccccc1 | – | 180 | –
80 | Cc1csc(C)c1 | – | 141 | –
81 | CCCCCCCCCO | – | – | ready biodegradability: readily biodegradable
82 | C=C(Cl)C#N | -65 | 88.5 | –
83 | N#CC(Br)c1ccccc1 (stereo not drawn) | 29 | – | –
84 | CC(C)(O)CCO | – | 202 | –
85 | Cc1ccccc1CBr | 21 | 217 | –
86 | N=C(N)c1ccc(C=Cc2ccc(C(=N)N)cc2O)cc1 | 235 | – | –
